Measurements taken from patent publication US5656662A, “Synthesis of optically pure 4-alkenyl- or 4-alkanyl-2-hydroxytetronic acids” (The Ohio State University Research Foundation, priority 1995, dated 1997).

Columns and labels:
Type in all cases: cell-based
phospholipase A2 = assay: Cellular phospholipase A2 activity in human monocytes; design: key: NE: No effect; INHIB: Inhibition; STIM: Stimulation; IC40: 40% Inhibitory Concentration; EC50: 50% Effective Concentration; TC: Tolerated Concentration; IA: Interferes with Assay
Description: This assay measures the ability of test compounds to modulate the activity of the cellular phospholipase A2 in human monocytes. Compounds are tested for their ability to inhibit stimulate phospholipase A2 activity or activate basal activity in unstimulated monocytes. Test compounds are incubated for ninety minutes with purified human monocytes at four dilutions over a range of three log10 concentrations. Where appropriate, zymosan is used to stimulate the monocytes.
Monocytes with the arachidonyl moiety of phospholipids radiolabelled are utilized in a 96 well format. Percent release of radiolabelled fatty acid into the extracellular medium is quantified by liquid scintillation counting. All compounds are tested in duplicate with controls and standards.

IL-1ra = IL-1ra secretion from purified human monocytes; design: key: NE: No effect; INHIB: Inhibition; STIM: Stimulation; IC40: 40% Inhibitory Concentration; EC50: 50% Effective Concentration; TC: Tolerated Concentration; IA: Interferes with Assay
Description: This assay determines the effect of test compounds on the secretion of IL-1ra from purified human monocytes. Compounds are tested for their ability to downregulate or upregulate the production of IL-1ra in unstimulated monocytes and in activated monocytes. Test compounds are incubated for sixteen hours with purified human monocytes at four dilutions over a range of three log10 concentrations. Where appropriate, lipopolysaccharide (LPS) is used to stimulate the monocytes.
The level of IL-1ra in the resultant supernatants is quantitated in a solid phase Enzyme-linked Immunoassay (EIA) performed in a 96 well format. IL-1ra present in the samples is captured by a specific monoclonal antibody immobilized on the well, and probed with an anti-IL-1ra polyclonal antibody. A second antibody conjugated to horseradish peroxidase is then added, followed by an appropriate substrate. The levels of IL-1ra are determined by interpolation of the resultant color change in the substrate from a standard curve. […]
This assay determines the effect of test compounds on the secretion of IL-1ra from purified human monocytes. […] The level of IL-1ra in the resultant supernatants is quantitated in a solid phase Enzyme-linked Immunoassay (EIA) performed in a 96 well format. […] The levels of IL-1ra are determined by interpolation of the resultant color change in the substrate from a standard curve. […]

TNFα = TNFα production from purified human monocytes; design: key to EFFECT on TNFα: NE: No effect; INHIB: Inhibition; STIM: Stimulation; IC40: 40% Inhibitory Concentration; EC50: 50% Effective Concentration; TC: Tolerated Concentration; IA: Interferes with Assay
Description: (§1) This assay determines the effect of test compounds on the production of TNFα from purified human monocytes. Compounds are tested for their ability to downregulate the production of TNFα in activated monocytes, or upregulate secretion of TNFα in unstimulated monocytes. Test compounds are incubated for sixteen hours with purified human monocytes at four dilutions over a range of three log10 concentrations. Where appropriate, lipopolysaccharide (LPS) is used to stimulate the monocytes.
The level of TNFα in the resultant supernatants is quantitated in a solid phase Enzyme-linked Immunoassay (EIA) performed in a 96 well format. TNFα present in the samples is captured by a specific monoclonal antibody immobilized on the well, and detected with an anti-TNFα polyclonal antibody conjugated to horse radish peroxidase, followed by an appropriate substrate. The levels of TNFα are determined by interpolation of the resultant color change in the substrate from a standard curve. All supernatants are tested in duplicate with controls and standards.
as §1, with “production of TNF from purified” for “production of TNFα from purified”, “incubated for sixteeen hours with” for “incubated for sixteen hours with”

[1] = tested on: normal human mononuclear cells; assay: PHA mitogen-stimulated cell proliferation; design: key: NE: No effect; INHIB: Inhibition; STIM: Stimulation; IC40: 40% Inhibitory Concentration; EC50: 50% Effective Concentration; TC: Tolerated Concentration; IA: Interferes with Assay
Description: The purpose of this procedure is to determine the effect of test compounds on Mixed Lymphocyte Reaction and Mitogen-Induced Proliferation of normal human mononuclear cells.
(§2) Procedure for Cell Proliferation: Peripheral blood mononuclear cells (PBMNC) are added to a 96-well cell culture plate. Compounds are tested at four dilutions, in quadruplicates, over a range of three log10 concentrations along with negative an inhibitory controls. The test compounds are incubated with the cells for one hour, phytohemagglutinin (PHA) is then added to all reactive test wells and the cultures are incubated for three days. The cultures are then pulsed with ^3 H incorporation is then determined with a Wallac Betaplate counter.
as §2, with “incubated with,” for “incubated with”, “for thee” for “for three”

## CCCCCCCCCCCCCC/C=C\CC[C@@H]1OC(=O)C(O)=C1O [(S)-3,4-Dihydroxy-5-[(Z)-3-octadecenyl]-2(5H)-furanone]
Phospholipase A2; STIMULATED
  EFFECT on PLA2: NE
Phospholipase A2; UNSTIMULATED
  EFFECT on PLA2: NE
IL-1ra; STIMULATED
  EFFECT on IL1ra: NE
IL-1ra; UNSTIMULATED
  EFFECT on IL1ra: NE
TNFα; Homo sapiens, Monocyte, STIMULATED, STIM
  EC50: 38 µM
TNFα; STIMULATED
  EFFECT on TNFα: STIM
TNFα; UNSTIMULATED
  EFFECT on TNFα: NE
[1]
  EFFECT on PHA: NE
